Source: patent US20100278835A1, “NOVEL COMPOUNDS 660” (ASTRAZENECA UK LIMITED, priority 2009, published 2010)
Converted amounts (≈) assume the structure as drawn.

Experiments:
Thermodynamic solubility = format: physicochemical
Procedure: A known amount of the test compound was stirred in 0.1M phosphate buffer pH 7.4 at constant temperature (25° C.) for 24 h. The supernatant was then separated from un-dissolved material by double centrifugation, and subsequently analysed and quantified against a standard of known concentration in DMSO using generic HPLC-UV methodology coupled with mass spectral peak identification. Data are also included for a reference quinazolin-2,4-dione derivative disclosed in WO 03/053344.

RSV RSS strain = test: ELISA assay of antiviral activity against RSV (reduction in RSV protein expression); format: cell-based; conditions: Hep-2 cells infected with RSV RSS strain, multiplicity of infection 0.02, 3 days, concentration required to inhibit RSV protein expression by 50%
Procedure: The antiviral activity of these compounds against RSV was determined in an ELISA assay. […] ELISA assays were set up by seeding 96-well plates with 5×10^3 Hep-2 cells per well in 100 μl DMEM containing 10% FBS for 24 h. Compound dilutions were prepared in 0.5% DMSO and 50 μl/well was added to the assay plates, the plates were incubated at 37° C. in 5% CO2 for one hour. Cells were infected with 50 μl/well RSV RSS strain at a multiplicity of infection of 0.02 and were incubated at 37° C. in 5% CO2 for 3 days. Cells were then fixed and permeabilised with 75%/25% methanol acetone and blocked with 2% Marvel™, 0.05% Tween for one hour. Plates were then incubated in the presence of a 1:4000 dilution of […] polyclonal antibody (Millipore, AB1128) followed by a 1:1000 dilution of rabbit anti-goat, horseradish peroxidase (DAKO, PO449) labelled secondary antibody. The plates were developed with O-phenylenediamine in the presence of hydrogen peroxide. The antiviral activity of the compounds is presented as an IC50, the concentration required to inhibit RSV protein expression by 50%.

[1] = aqueous buffer, thermodynamic from solid, 0.1M phosphate buffer pH 7.4, 25° C., 24 h, HPLC-UV
[2] = human respiratory syncytial virus, 72 h

CC(C)CCn1c(CN2C(=O)N(C3CC3)Cc3ccccc32)nc2cc(CN)ccc21 [Example 7, 1-[[5-(Aminomethyl)-1-isopentyl-benzimidazol-2-yl]methyl]-3-cyclopropyl-4H-quinazolin-2-one]
solubility thermodynamic at 24 h (Thermodynamic solubility; [1]): 2300 µM (≈ 960 µg/mL)
IC50 (RSV RSS strain; [2]): 1.7 nM

1-[[5-(aminomethyl)-1-isopentyl-benzimidazol-2-yl]methyl]-3-cyclopropyl-4,4-dimethyl-quinazolin-2-one [Example 21]
solubility thermodynamic at 24 h (Thermodynamic solubility; pH 7.4): 1050 µM
IC50 (RSV RSS strain): 57 nM

COCCN1Cc2ccccc2N(Cc2nc3cc(CN)ccc3n2CCC(C)C)C1=O [Example 13, 1-[[5-(aminomethyl)-1-isopentyl-benzimidazol-2-yl]methyl]-3-(2-methoxyethyl)-4H-quinazolin-2-one]
solubility thermodynamic at 24 h (Thermodynamic solubility; [1]): 1560 µM (≈ 679 µg/mL)
IC50 (RSV RSS strain; [2]): 101 nM

COCCn1c(=O)c2ccccc2n(Cc2nc3cc(CN)ccc3n2CCC(C)C)c1=O [reference compound]
solubility thermodynamic at 24 h (Thermodynamic solubility; [1]): 36 µM (≈ 16.2 µg/mL)

NCc1ccc2c(c1)nc(Cn1c(=O)n(C3CC3)c(=O)c3ccccc31)n2CCCC(F)(F)F [reference compound]
solubility thermodynamic at 24 h (Thermodynamic solubility; [1]): 90 µM (≈ 42.4 µg/mL)

CC(C)CCn1c(CN2C(=O)N(C3CC3)Cc3ccccc32)nc2cc(C(=N)N)ccc21 [Example 35, 2-[(3-cyclopropyl-2-oxo-4H-quinazolin-1-yl)methyl]-1-isopentyl-benzimidazole-5-carboxamidine]
solubility thermodynamic at 24 h (Thermodynamic solubility; [1]): 808 µM (≈ 348 µg/mL)
IC50 (RSV RSS strain; [2]): 3.2 nM

NCc1ccc2c(c1)nc(CN1C(=O)N(C3CC3)Cc3ccccc31)n2CCCC(F)(F)F [Example 28, 1-[[5-(Aminomethyl)-1-(4,4,4-trifluorobutyl)benzimidazol-2-yl]methyl]-3-cyclopropyl-4H-quinazolin-2-one]
solubility thermodynamic at 24 h (Thermodynamic solubility; [1]): 289 µM (≈ 132 µg/mL)
IC50 (RSV RSS strain; [2]): 0.5 nM

Cc1cc2c(cc1CN)nc(CN1C(=O)N(C3CC3)Cc3ccccc31)n2CCC(C)C [Example 46, 1-[[5-(Aminomethyl)-1-isopentyl-6-methyl-benzimidazol-2-yl]methyl]-3-cyclopropyl-4H-quinazolin-2-one]
solubility thermodynamic at 24 h (Thermodynamic solubility; [1]): 831 µM (≈ 359 µg/mL)
IC50 (RSV RSS strain; [2]): 1.5 nM

CC(C)CCn1c(CN2C(=O)N(C)Cc3ccccc32)nc2cc(CN)ccc21 [Example 5, 1-[[5-(aminomethyl)-1-isopentyl-benzimidazol-2-yl]methyl]-3-methyl-4H-quinazolin-2-one]
solubility thermodynamic at 24 h (Thermodynamic solubility; [1]): 2290 µM (≈ 897 µg/mL)
IC50 (RSV RSS strain; [2]): 8.9 nM

CC(C)CCn1c(Cn2c(=O)n(C)c(=O)c3ccccc32)nc2cc(CN)ccc21 [reference compound]
solubility thermodynamic at 24 h (Thermodynamic solubility; [1]): 16 µM (≈ 6.49 µg/mL)

CC(C)CCn1c(CN2C(=O)N(C3CC3)C(C)c3ccccc32)nc2cc(CN)ccc21 (centres unmarked) [Example 20, 1-[[5-(aminomethyl)-1-isopentyl-benzimidazol-2-yl]methyl]-3-cyclopropyl-4-methyl-4H-quinazolin-2-one]
solubility thermodynamic at 24 h (Thermodynamic solubility; [1]): 654 µM (≈ 282 µg/mL)
IC50 (RSV RSS strain; [2]): 9.4 nM

CC(C)CCn1c(CN2C(=O)N(C3CC3)Cc3c(F)cccc32)nc2cc(CN)ccc21 [Example 23, 1-[[5-(aminomethyl)-1-isopentyl-benzimidazol-2-yl]methyl]-3-cyclopropyl-5-fluoro-4H-quinazolin-2-one]
solubility thermodynamic at 24 h (Thermodynamic solubility; [1]): 242 µM (≈ 105 µg/mL)
IC50 (RSV RSS strain; [2]): 7.7 nM

CC(C)CCn1c(Cn2c(=O)n(C3CC3)c(=O)c3ccccc32)nc2cc(CN)ccc21 [reference compound]
solubility thermodynamic at 24 h (Thermodynamic solubility; [1]): 70 µM (≈ 30.2 µg/mL)

CN1Cc2ccccc2N(Cc2nc3cc(CN)ccc3n2CCCCO)C1=O [Example 24, 1-[[5-(aminomethyl)-1-(4-hydroxybutyl)benzimidazol-2-yl]methyl]-3-methyl-4H-quinazolin-2-one]
IC50 (RSV RSS strain; [2]): 3.2 nM
